Measured values taken from patent US20120083464A1, “NEUROPROTECTIVE PROPERTIES OF 5'-METHYLTHIOADENOSINE” (priority 2009, published 2012).

Legend:
[1] = tested on: dopaminergic neurons (TH+ cells) in the substantia nigra; experiment: MPTP mice model of Parkinson disease, TH immunohistochemistry; type: in vivo, C57B1 mice
Protocol: Male C57B1 mice, with a body ranging in weight from 23 to 31 g were used in this study. MPTP (Sigma) dissolved in 0.9% NaCl was injected intraperitonealy at a dose of 30 mg/kg for 5 days. MTA was dissolved in purified water with 2% of DMSO at a final concentration of 6 mg/ml and was injected intraperitonealy at a dose of […] or 192 μmol/Kg. The first day of the experiment MTA was injected 24 hours before the MPTP injection and during the following four days administration of MTA was 1 hour before the administration of MPTP. Mice were divided in four groups: (1) MPTP (n=6); (2) MPTP plus 96 μmol/Kg MTA (n=6); (3) MPTP plus 192 μmol/Kg MTA (n=9) and (4) Control group (n=2).
At the end of the experiment, animals were anesthetized with an overdose of 10% chloral hydrate in distilled water and then transcardially perfused with saline Ringer's solution followed by 100 ml of a cold fixative solution containing 4% paraformaldehyde and 0.4% glutaraldehyde in 0.125 M PB, pH 7.4. After perfusion, the skull was opened and the brain removed was post-fixed overnight at 4° C. in the same fixative solution and next stored in a cryoprotective solution containing 20% glycerine and 2% dimethylsulphoxide in 0.125 M PB, pH 7.4. Frozen coronal microtome sections (50 μm-thick) were obtained and collected in 0.125 M PB, pH 7.4, in 6 series of adjacent sections. Sections were stored at −80° C. until further processing.
With a random start, every third sections through the entire SN were sampled. The sections were processed free-floating. Endogenous peroxidase activity was removed by incubating the sections in methanol with 1.25% H2O2 for 40 min. […] Histological quantification was done using the CAST system from Olympus using the BX50 microscope and following the methods described by Oorschot (J Comp Neurol 366:580-599, 1996). […] Neurons were counted using the optic dissector every 3 sections at 150 μm distance and at ×400. […]

[2] = tested on: Corticospinal tract-YFP mice with chronic EAE; experiment: Chronic EAE (model of progressive multiple sclerosis), clinical score and axonal density; type: in vivo, mice (C57B6 background)
Description: Chronic EAE was induced in Corticospinal tract-YFP mice (C57B6 background; see Bareyre et al., Nat Med. 2005 December; 11(12):1355-60) immunized with MOG. The fluorescence labelling of motor axons, allows an accurate quantification of axonal damage during EAE.
1. Align spinal cords of all animals and cut out the following pieces of the spinal cord at the same level in all animals: a) a piece of the cervical spinal cord (about 1 cm in length) starting around at the upper cervical level around C1/2 (this will allow you to determine the number of CST fibers that enter the spinal cord); b) a piece of the lumbar spinal cord (about 1 cm in length) starting around the mid-lumbar level L2/3 (this will allow you to determine the number of fibers that reach the lumbar spinal cord).
5. Mount the tissue and analyze the sections using confocal microscopy—use a high-resolution objectives e.g. a 60× oil objective and take a single image plan covering the entire corticospinal tract.
6. Then simple count the number of dots (=number of fibers)—we usually do this blinded on 3-5 sections and then calculate the average for the CST as the CST—especially in the cervical spinal cord which contains many fibers it might be easier to estimate the total number of cervical CST fibers based on counts of several CST areas with a defined size. […]

Question: With `CSC[C@H]1O[C@@H](n2cnc3c(N)ncnc32)[C@H](O)[C@@H]1O` [MTA, 5′-methylthioadenosine] as the compound, how does the “reduction in the number of TH (dopaminergic) neurons compared to controls” value ([1]; MPTP 30 mg/kg for 5 days plus MTA 96 μM/day (so in the source)) read?
Answer: 10%

Question: And the “higher number of dopaminergic neurons than MPTP treated animals” value ([1]; MPTP plus MTA 96 μM/day (so in the source))?
Answer: 30%

Question: And the “number of TH neurons versus MPTP animals” value ([1]; MPTP plus MTA (96 μM as printed))?
Answer: significantly higher number of TH neurons

Question: What about the “clinical symptoms (EAE clinical score) versus placebo” value ([2]; MTA 96 μMol/Kg i.p. daily from first day with EAE score of 2 or higher) of the same compound?
Answer: amelioration of the clinical symptoms

Question: What about the “axonal density in lumbar and cervical spinal cord versus placebo” value ([2]; MTA 96 μMol/Kg i.p. daily, chronic phase) of the same compound?
Answer: significantly higher axonal density
